Test results reported in US11040958B2, “Triazole antimicrobial derivative, pharmaceutical composition and use thereof” (priority 2017, dated 2021).

Columns and labels:
[1] = Solubility test in deionized water (HPLC, external calibration); type: physicochemical; conditions: deionized water, 25±2°C
Method: Experimental condition: 25±2° C.
Dissolving medium: deionized water
Experimental method: 1 mg voriconazole and appropriate amount of each compound were weighed, placed in 1 ml deionized water separately, shaken vigorously for 30 s every 5 mins for 30 mins.

[2] = In vitro metabolic stability in rat plasma; type: in vitro ADME; conditions: 37°C, compound 10 μM
Method: The two reaction systems were set up three samples in parallel, while each sample was taken in an amount of 100 μL at 1 min, 2 mins, 5 mins, 15 mins, and 30 mins after the reaction, added to the centrifuge tube containing 400 μL of 0° C. pre-cooled internal standard working fluid and terminated the reaction. The sample was mixed by vortex for 1 min, centrifuged at 10,000×g for 10 mins in a 4° C. pre-cooled high-speed centrifuge. The supernatant was taken for HPLC detection. […] Concentration of mother liquor of compounds: 1 mM […]

[3] = Solid stability test (25°C, RH 60%, 30 days); type: physicochemical; conditions: 25°C±2°C, relative humidity 60%±2%
Method: Experimental conditions: 25° C.±2° C., relative humidity 60%±2%
Experimental instrument: Agilent 1260 HPLC; chamber for stability test
Experimental method: each compound of the present disclosure was packaged (the inner packaging material was a penicillin bottle; the outer packaging material was a double-layer aluminum foil bag, and a desiccant was added inside and outside the package), placed in the chamber for stability test, at a temperature of 25° C.±2° C. and a relative humidity of 60%±2%. The degradation situation of the compounds for 30 days was examined. The contents of total impurities before and after 30 days of each compound were compared and the results were as follows: […]

[4] = tested on: Candida albicans ATCC10231; assay: Systemic fungal infection in mice, administration by gavage, survival; type: in vivo; conditions: ICR mice, 5 mg/kg (calculated as voriconazole) once daily for 5 days
Method: ICR mice, weighing 18-22 g, male, provided by the Hubei Experimental Animal Center.
The standard strain Candida albicans was purchased from the American Type Culture Collection, and the strain number was ATCC10231.
Before the experiment, a small amount of Candida albicans was picked from the SDA medium preserved at 4° C. by inoculation circle, inoculated into 1 ml of YPD culture medium, and cultured at 30° C. while being shaken at 200 rpm for 16 hours to make the fungus in the late stage of exponential growth. Blood cell counting plate was used to count, and the concentration of the broth was adjusted to 1*10^3−5*10^3 CFU/ml with RPMI1640 medium. The Candida albicans monoclone on the SDA plate was picked, inoculated into 1 ml YPD medium, cultured at 35° C., 200 rpm for 16 hours to the late exponential growth phase, 1% of which was then inoculated in fresh medium for 6 hours, centrifuged at 1000×g for 5 mins, washed three times with saline until the supernatant was colorless, while hemocytometer was used to count. The cell concentration was adjusted to 5*10^6/ml. The tail vein injection of 0.1 ml/10 g was carried out to cause a systemic fungal infection in mice. The mice were randomized into groups of 10 each. Voriconazole used was in the form of a suspension prepared with CMC-Na (Shanghai Panhong Chemical Technology Co., Ltd.), while other tested drugs were dissolved in saline and sonicated until clarified for administration. After establishing a systemic fungal infection model in mice for 2 hours, each group was administered by gavage with 5 mg/kg (calculated as voriconazole) drug, with the volume for administration of 0.1 ml/10 g. The mice in the model group were administered 0.1 ml/10 g of 0.9% sodium chloride solution, once daily, for 5 consecutive days. The death situation of the mice was inspected and the survival time was recorded. After a total of 7 days of observation, all dead mice were treated with fire using ethanol.

[5] = Pharmacokinetics after single gastrointestinal (gavage) administration in rats (plasma voriconazole); type: in vivo; conditions: SD rats, 2.5 mg/kg (calculated as voriconazole)
Method: Dosing volume for administration: 10 ml/kg
Solvent medium for administration: except for the positive voriconazole group using CMC-Na, the other groups using normal saline
Route of administration: gavage

[6] = In vitro metabolic stability in human plasma; type: in vitro ADME; conditions: 37°C, compound 10 μM
Method: The two reaction systems were set up three samples in parallel, while each sample was taken in an amount of 100 μL at 1 min, 2 mins, 5 mins, 15 mins, and 30 mins after the reaction, added to the centrifuge tube containing 400 μL of 0° C. pre-cooled internal standard working fluid and terminated the reaction. The sample was mixed by vortex for 1 min, centrifuged at 10,000×g for 10 mins in a 4° C. pre-cooled high-speed centrifuge. The supernatant was taken for HPLC detection.

[7] = In vitro metabolic stability in human intestinal S9; type: in vitro ADME; conditions: 37°C, S9 1 mg/mL, compound 10 μM, NADPH regeneration system
Method: (§1) The two reaction systems were set up three samples in parallel, while each sample was taken in an amount of 100 μL at 1 min, 2 mins, 5 mins, 15 mins, and 30 mins after the reaction, added to the centrifuge tube containing 400 μL of 0° C. pre-cooled internal standard working fluid and terminated the reaction. The sample was mixed by vortex for 1 min, centrifuged at 10,000×g for 10 mins in a 4° C. pre-cooled high-speed centrifuge. The supernatant was taken for HPLC detection. […] Concentration of mother liquor of compounds: 1 mM […] [table]

[8] = In vitro metabolic stability in rat intestinal S9; type: in vitro ADME; conditions: 37°C, S9 1 mg/mL, compound 10 μM, NADPH regeneration system
Method: as §1

[9] = Pharmacokinetics after single intravenous administration in rats (plasma voriconazole); conditions: rat, in vivo, 2.5 mg/kg
Outline: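 SD rats (180–220 g, 3 male/3 female per group) given single tail-vein dose of 2.5 mg/kg (as voriconazole). Plasma voriconazole measured in blood sampled at multiple time points post-dose.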

Compound	Solubility [1] [mg/mL]	Rat plasma T1/2 [2] [min]	Content increase of total impurity (25° C., placed for 30 days) [3] [%]	survival rate of mice, day 1 [4] [%]	survival rate of mice, day 2 [4] [%]	survival rate of mice, day 3 [4] [%]	survival rate of mice, day 4 [4] [%]	survival rate of mice, day 5 [4] [%]	survival rate of mice, day 6 [4] [%]	survival rate of mice, day 7 [4] [%]	AUClast [5] [ng·h/mL]	Cmax [5] [ng/mL]	T1/2 [5] [min]	Human plasma T1/2 [6] [min]	Human intestinal S9 T1/2 [7] [min]	Rat intestinal S9 T1/2 [8] [min]	AUClast [9] [ng·h/mL]	T1/2 [9] [min]
CC(OC(=O)N(C)c1ncccc1COC(=O)[C@@H](N)CCCN)[n+]1cnn(C[C@](O)(c2ccc(F)cc2F)[C@@H](C)c2ncncc2F)c1.Cl.Cl.Cl.[Br-] (stereo partly shown) [QR16008]	>50	10.58 ± 2.95	1.05	100	100	100	100	90	80	80	8745 ± 2365	825 ± 256	159 ± 34.8	9.49 ± 1.31	30.25 ± 4.90	32.52 ± 7.82	–	–
CC(OC(=O)N(C)c1ncccc1COC(=O)CN(C)C)[n+]1cnn(C[C@](O)(c2ccc(F)cc2F)[C@@H](C)c2ncncc2F)c1.Cl.Cl.[Cl-] (stereo partly shown) [QR16045]	>50	8.88 ± 0.55	2.23	100	100	90	90	90	90	80	7859 ± 2256	562 ± 158	155 ± 52.8	8.95 ± 0.12	32.97 ± 8.45	27.85 ± 6.58	8586 ± 1856	164 ± 46.8
